Legend:
ROCK1 = ROCK1 (Homo sapiens (Human), UniProt Q13464); experiment: ROCK1 kinase IC50 assay (biological test method similar to the ROCK2 assay); type: biochemical
Method in brief: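 HTRF KinEASE-STK S2 assay with the STK-S2 biotinylated substrate and ATP, at 5× working solutions of 1.5 µM each. Kinase reaction with 9-point compound dilutions ran 2 h at room temperature, followed by 1 h streptavidin-XL665/Cryptate detection. The 665/615 nm ratio was normalised to no-compound and no-kinase wells, and IC50 was obtained by curve fitting.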

ROCK2 = ROCK2 (Homo sapiens, UniProt O75116); experiment: ROCK2 kinase IC50 assay (CISBIO HTRF KinEASE-STK S2 kit); type: biochemical; details: incubated at room temperature for 2 hours
Method: The kinase IC50 was determined by a commercialized CISBIO kinase detection kit, HTRF KinEASE-STK S2 kit (62ST2PEC). ROCK2 (01-119) employed in the reaction was purchased from Carna Biosciences.
Before the assay, the following working solutions as needed were formulated with corresponding reagents according to the instruction of the kinase detection kit: 1×kinase buffer, 5×STK-52 substrate working solution (1.5 μM) and 5×ATP working solution (1.5 μM), 5×ROCK2 kinase working solution, 4×Streptavidin-XL665 working solution, and 4×STK-Ab-Cryptate 2 detection solution. Then the assay was performed according to the following procedure.
A solution of a compound at a concentration of 10000 nM was prepared with the 1×kinase buffer containing 2.5% DMSO. Gradient dilution of the solution of the compound was performed with the kinase buffer containing DMSO, so as to obtain solutions of a test compound at 9 different concentrations. In addition to wells of test compounds, a positive well (containing all the reagents except the compound) and a negative well (containing all the reagents except the test compound and kinase) were set. Except for the control wells (positive and negative wells), a solution of a test compound (4 μL) was added to each of the reaction wells, and a solution of 2.5% DMSO was added to the control wells. Then the substrate ([…], 2 μL. 5×STK-S2 substrate working solution) was added to each of the reaction wells. The 5×ROCK2 kinase working solution (2 μL, containing 1.4 ng ROCK2 kinase) was added to each of the reaction wells except for the negative well, the volume of which was made up with the 1×kinase buffer (2 μL). The 5×ATP working solution (2 μL) was added to each of the reaction wells, and the mixtures were incubated at room temperature for 2 hours. After the kinase reaction was complete, the 4×Streptavidin-XL665 working solution was added to each of the reaction wells, the solutions were mixed, followed by immediate addition of the 4×STK-Ab-Cryptate 2 detection solution (5 μL), and the mixtures were incubated at room temperature for 1 hour. The fluorescence signal was read on ENVISION (Perkinelmer) (excitation wavelength: 320 nm, and emission wavelength: 665 nm and 615 nm). The inhibitory rate in each well was calculated based on the fluorescence intensity value: ER (Emission Ratio)=(fluorescence intensity at 665 nm/fluorescence intensity at 615 nm); inhibitory rate=(ERpositive−ERtest compound)/(ERpositive−ERnegative)*100%. Curves were plotted and fitted to obtain the median inhibitory concentration (IC50) of each teat compound with the PRISM 5.0 software.

Sequence of ROCK1 (Q13464 whole entry, species assumed): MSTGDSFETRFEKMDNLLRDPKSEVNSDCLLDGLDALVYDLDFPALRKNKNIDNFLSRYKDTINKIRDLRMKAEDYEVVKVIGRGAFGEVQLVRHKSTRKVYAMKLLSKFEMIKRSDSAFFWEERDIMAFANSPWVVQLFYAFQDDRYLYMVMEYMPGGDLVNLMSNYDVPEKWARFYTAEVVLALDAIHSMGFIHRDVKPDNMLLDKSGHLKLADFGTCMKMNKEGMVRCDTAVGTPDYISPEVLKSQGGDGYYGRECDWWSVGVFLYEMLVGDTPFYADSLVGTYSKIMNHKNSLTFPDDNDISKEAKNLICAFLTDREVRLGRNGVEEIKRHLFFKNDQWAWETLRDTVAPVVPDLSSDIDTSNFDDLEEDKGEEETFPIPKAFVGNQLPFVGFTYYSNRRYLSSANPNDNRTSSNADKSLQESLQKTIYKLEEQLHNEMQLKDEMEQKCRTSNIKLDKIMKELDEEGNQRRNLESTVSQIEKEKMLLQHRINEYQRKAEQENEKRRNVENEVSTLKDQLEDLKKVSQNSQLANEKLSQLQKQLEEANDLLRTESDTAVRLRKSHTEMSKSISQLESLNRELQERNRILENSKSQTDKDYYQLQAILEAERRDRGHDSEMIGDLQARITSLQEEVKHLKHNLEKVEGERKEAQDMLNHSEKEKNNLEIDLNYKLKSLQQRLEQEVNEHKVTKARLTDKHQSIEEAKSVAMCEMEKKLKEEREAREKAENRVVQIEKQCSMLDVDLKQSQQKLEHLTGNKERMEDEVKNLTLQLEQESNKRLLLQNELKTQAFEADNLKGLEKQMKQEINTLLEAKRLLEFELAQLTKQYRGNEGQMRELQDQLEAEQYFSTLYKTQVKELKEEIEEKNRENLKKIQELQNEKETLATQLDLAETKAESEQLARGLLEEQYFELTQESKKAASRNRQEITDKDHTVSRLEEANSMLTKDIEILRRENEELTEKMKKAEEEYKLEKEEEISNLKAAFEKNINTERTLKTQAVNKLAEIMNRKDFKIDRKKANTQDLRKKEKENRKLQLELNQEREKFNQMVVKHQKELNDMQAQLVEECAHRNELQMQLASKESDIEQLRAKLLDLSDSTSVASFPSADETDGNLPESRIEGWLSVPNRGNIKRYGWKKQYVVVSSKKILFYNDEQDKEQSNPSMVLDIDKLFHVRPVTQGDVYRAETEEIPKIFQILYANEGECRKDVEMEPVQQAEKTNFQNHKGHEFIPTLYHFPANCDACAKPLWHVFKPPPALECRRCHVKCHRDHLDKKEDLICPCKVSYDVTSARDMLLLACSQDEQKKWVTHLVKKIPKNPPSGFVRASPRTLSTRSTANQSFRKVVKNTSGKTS

Row | IC50 (ROCK1) | IC50 (ROCK2) | Compound
1 | 592 nM | 18 nM | O=C(c1cc2ccc(-c3nccc(Nc4ccc(-c5cn[nH]c5)cc4)n3)cc2[nH]1)N1CCC(F)C1 (stereo not drawn) [TDI01473, (6-(4-((4-(1H-pyrazol-4-yl)phenyl)amino)pyrimidin-2-yl)-1H-indol-2-yl)(3-fluoropyrrolidin-1-yl)methanone]
2 | > 10000 nM | 41 nM | CC(C)NC(=O)N1Cc2ccc(-c3nc(Nc4ccc(-c5cn[nH]c5)cc4)c4occc4n3)cc2C1 [TDI01861, 5-(4-((4-(1H-pyrazol-4-yl)phenyl)amino)furo[3,2-d]pyrimidin-2-yl)-N-isopropylisoindoline-2-carboxamide]
3 | > 10000 nM | 92 nM | CC(=O)C1CN(C(=O)c2cc3ccc(-c4nccc(Nc5ccc(-c6cn[nH]c6)cc5)n4)cc3n2C)C1 [TDI01517, 1-(1-(6-(4-((4-(1H-pyrazol-4-yl)phenyl)amino)pyrimidin-2-yl)-1-methyl-1H-indole-2-caibonyl)azetidin-3-yl)ethan-1-one]
4 | > 10000 nM | 32 nM | COc1cnc(-c2ccc3cc(C(=O)N(C)CC(F)(F)F)[nH]c3c2)nc1Nc1ccc(-c2cn[nH]c2)cc1 [TDI01868, 6-(4-((4-(1H-pyrazol-4-yl)phenyl)-amino)-5-methoxy-pyrimidin-2-yl)-N-methyl-N-(2,2,2-trifluoroethyl)-1H-indole-2-carboxamide]
5 | > 10000 nM | 123 nM | O=C(CC1CCOC1)N1Cc2ccc(-c3nccc(Nc4ccc(-c5cn[nH]c5)cc4)n3)cc2C1 (stereo not drawn) [TDI01597B, 1-(5-(4-((4-(1H-pyrazol-4-yl)phenyl)amino)pyrimidin-2-yl)isoindolin-2-yl)-2-(tetrahydrofuran-3-yl)ethan-1-one]
6 | > 10000 nM | 50 nM | C=Cn1c(C(=O)N2CC(F)(F)C2)cc2ccc(-c3nccc(Nc4ccc(-c5cn[nH]c5)cc4)n3)cc21 [TDI01923, (6-(4-((4-(1H-pyrazol-4-yl)phenyl)amino)pyrimidin-2-yl)-1-vinyl-1H-indol-2-yl)(3,3-difluoroazetidin-1-yl)methanone]
7 | 3000 nM | 110 nM | O=C(Oc1ccccc1)N1Cc2ccc(-c3nccc(Nc4ccc5[nH]ncc5c4)n3)cc2C1 [TDI01403, phenyl 5-(4-((1H-indazol-5-yl)amino)pyrimidin-2-yl)isoindoline-2-caiboxylate]
8 | 2730 nM | 49 nM | Cn1c(C(=O)N2C[C@@H](F)[C@@H](F)C2)cc2ccc(-c3nccc(Nc4ccc(-c5cn[nH]c5)cc4)n3)cc21 [TDI01514, (6-(4-((4-(1H-pyrazol-4-yl)phenyl)amino)pyrimidin-2-yl)-1-methyl-1H-indol-2-yl) ((3S,4R)-3,4-difluoropyrrolidin-1-yl)methanone]
9 | 4060 nM | 62 nM | Cn1c(-c2nccs2)cc2ccc(-c3nccc(Nc4ccc(-c5cn[nH]c5)cc4)n3)cc21 [TDI01919]
10 | > 10000 nM | 23 nM | O=C(OC1CC(F)(F)C1)N1Cc2ccc(-c3nccc(Nc4ccc(-c5cn[nH]c5)cc4)n3)cc2C1 [TDI01562, 3,3-difluorocyclobutyl 5-(4-((4-(1H-pyrazol-4-yl)phenyl)amino)pyrimidin-2-yl)isoindoline-2-carboxylate]
11 | 3000 nM | 120 nM | CN(C)C(=O)c1cc2ccc(-c3nccc(Nc4ccc(-c5cn[nH]c5)c(F)c4)n3)cc2[nH]1 [TDI01842, 6-(4-((3-fluoro-4-(1H-pyrazol-4-yl)phenyl)ami-no)pyrimidin-2-yl)-N, N-dimethyl-1H-indole-2-carboxamide]
12 | > 10000 nM | 174 nM | O=C(c1cc2ccc(-c3nc(Nc4ccc(-c5cn[nH]c5)cc4)c4sccc4n3)cc2[nH]1)N1CC(F)(F)C1 [TDI01472, (6-(4-((4-(1H-pyrazol-4-yl)phenyl)amino)thieno [3,2-d]pyrimidin-2-yl)-1H-indol-2-yl)(3,3-difluoroazetidin-1-yl)methanone]
13 | 3630 nM | 22 nM | Cn1c(C(=O)N2CC3C(C2)C3(F)F)cc2ccc(-c3nccc(Nc4ccc(-c5cn[nH]c5)cc4)n3)cc21 (stereo not drawn) [TDI01512, (6-(4-((4-(1H-pyrazol-4-yl)phenyl)amino)pyrimidin-2yl)-1-methyl-1H-indol-2-yl)(6,6-difluoro-3-azabicyclo[3.1.0]hexan-3-yl)methanone]
14 | > 10000 nM | 65 nM | NC(=O)c1cnc(-c2ccc3c(c2)CN(C(=O)C2CC(F)(F)C2)C3)nc1Nc1ccc(-c2cn[nH]c2)cc1 [TDI01567, 4-((4-(1H-pyrazol-4-yl)phenyl)amino)-2-(2-(3,3-difluorocyclobutane-1-carbonyl)isoindolin-5-yl)pyrimidin-5-carboxamide]
15 | > 10000 nM | 360 nM | O=C(C1CC(F)(F)C1)N1CCc2cc(-c3nccc(Nc4ccc5[nH]ncc5c4)n3)ccc2C1 [TDI01683, (6-(4-((1H-indazol-5-yl)amino)pyrimidin-2-yl)-3,4-dihydroisoquinolin-2(1H)-yl)(3,3-difluorocyclobutyl)methanone]
16 | 6070 nM | 181 nM | CC1(F)CN(C(=O)c2cc3ccc(-c4nccc(Nc5ccc(-c6cn[nH]c6)cc5)n4)cc3[nH]2)C1 [TDI01441, (6-(4-((4-(1H-pyrazol-4-yl)phenyl)amino)pyrimidin-2-yl)-1H-indol-2-yl)(3-fluoro-3-methylazetidin-1-yl)methanone]
17 | > 10000 nM | 15 nM | O=C(NCC(F)(F)F)c1cc2ccc(-c3nccc(Nc4ccc(-c5cn[nH]c5)cc4)n3)cc2s1 [TDI01456, 6-(4-((4-(1H-pyrazol-4-yl)phenyl)-amino)-pyrimidin-2-yl)-N-(2,2,2-trifluoroethyl)-benzo[b]-thiophene-2-carboxamide]
18 | > 10000 nM | 398 nM | CS(=O)(=O)C1CN(C(=O)c2cc3ccc(-c4nccc(Nc5ccc(-c6cn[nH]c6)cc5)n4)cc3[nH]2)C1 [TDI01465, (6-(4-((4-(1H-pyrazol-4-yl)phenyl)amino)pyrimidin-2-yl)-1H-indol-2-yl)(3-(methylsulfonyl)azetidin-l-yl)methanone]
19 | > 10000 nM | 75 nM | c1cc(Nc2ccc(-c3cn[nH]c3)cc2)nc(-c2ccc3cc(-c4nccs4)[nH]c3c2)n1 [TDI01826, N-(4-(1H-pyrazol-4-yl)phenyl)-2-(2-(thiazol-2-yl)-1H-indol-6-yl)pyrimidin-4-amine]
20 | > 10000 nM | 99 nM | CN(CC(F)(F)F)C(=O)c1cc2cc(-c3nccc(Nc4ccc(-c5cn[nH]c5)cc4)n3)ccc2[nH]1 [TDI01429, 5-(4-((4-(1H-pyrazol-4-yl)phenyl)amino)pyrimidin-2-yl)-N-methyl-N-(2,2,2-trifluoroethyl)-1H-indole-2-carboxamide]
21 | > 10000 nM | 69 nM | CN(CC(F)(F)F)C(=O)c1cc2ccc(-c3nccc(Nc4ccc(-c5cn[nH]c5)cc4)n3)cc2s1 [TDI01428, 6-(4-((4-(1H-pyrazol-4-yl)phenyl)-amino)-pyrimidin-2-yl)-N-methyl-N-(2,2,2-trifluoroethyl)-benzo[b]-thiophene-2-carboxamide]
22 | 2250 nM | 81 nM | O=C(c1cc2ccc(-c3nccc(Nc4ccc(-c5cn[nH]c5)cc4)n3)cc2[nH]1)N1CC2C(C1)C2(F)F (stereo not drawn) [TDI01490, (6-(4-((4-(1H-pyrazol-4-yl)phenyl)amino)pyrimidin-2-yl)-1H-indol-2-yl)(6,6-difluoro-3-azabicyclo[3.1.0]hexan-3-yl)methanone]
23 | 5670 nM | 209 nM | Cn1c(C(=O)N2CCC(O)(C(F)(F)F)C2)cc2ccc(-c3nccc(Nc4ccc(-c5cn[nH]c5)cc4)n3)cc21 (stereo not drawn) [TDI01505, (6-(4-((4-(1H-pyrazol-4-yl)phenyl)amino)pyrimidin-2-yl)-1-methyl-1H-indol-2-yl) (3-hydroxy-3-(trifluoromethyl)pyrrolidin-1-yl)methanone]

Row | Compound | IC50 (ROCK1) | IC50 (ROCK2)
24 | Cn1c(C(=O)N2CC(F)(F)C2)cc2ccc(-c3ncnc(Nc4ccc(-c5cn[nH]c5)cc4)n3)cc21 [TDI01532, (6-(4-((4-(1H-pyrazol-4-yl)phenyl)amino)-1,3,5-triazin-2-yl)-1-methyl-1H-indol-2-yl)(3,3-difluoroazetidin-1-yl)methanone] | > 10000 nM | 49 nM

Reference: US11390609B2, “Rho-associated protein kinase inhibitor, pharmaceutical composition comprising same, and preparation method and use thereof” (BEIJING TIDE PHARMACEUTICAL CO., LTD., priority 2017, dated 2022)
